According to US10738097B2, “Interferon-beta analog peptide” (priority 2017, dated 2020):

Key:
Format in all cases: in vivo, mouse
[1] = system: matrix metalloproteinase 9 (MMP9); assay: MMP9 gene expression in brain tissue of EAE mice, quantitative real-time PCR; details: 20 mg/kg
Experimental: (§1) In this example, effects of the IFNβ analog peptide as the IFNβ analog peptide on the expression of some related inflammations mediators such as matrix metalloproteinase 2 (MMP2) and matrix metalloproteinase 9 (MMP9) were studied using quantitative real-time polymerase chain reaction (PCR).
(§2) The EAE mice were treated with PBS as the vehicle group, and dosage of the IFNβ analog peptide and IFNβ was 20 mg/kg in IFNβ analog peptide-treated mice and IFNβ-treated mice groups. After that RNA of the cells was extracted and their cDNA was synthesized.

interleukin 1β (IL1β) = assay: Plasma IL1β of EAE mice, ELISA; details: 21 days after EAE induction
Experimental: (§3) Moreover, after 21 days of EAE induction, mice were euthanized and their blood was obtained via cardiac puncture and plasma was prepared. Expression levels of tumor necrosis factor-alpha (TNFα) and interleukin 1β (IL1β) as circulating inflammatory biomarkers were measured in the plasma using quantitative enzyme-linked immunosorbent assay (ELISA) kits.

CD45 positive cells = CD45 positive cells in cerebral cortex of EAE mice; details: 10 and 20 mg/kg, particularly 20 mg/kg, day 21
Experimental: (§4) Furthermore, brain inflammatory response after IFNβ analog peptide treatment as the IFNβ analog peptide was evaluated by measuring the number of IL-17 positive cells, CD11b positive cells, and CD45 positive cells. IL-17 is the most important pro-inflammatory cytokine produced by T-helper cells, CD11b is an activated macrophages and microglia marker, and CD45 is a general leukocytes marker.
(§5) After 21 days of EAE induction, mice were euthanized and were transcardially perfused with PBS. Then, the brains were dissected; cerebral cortex was isolated and snap-frozen in liquid nitrogen.

IL-17 positive cells = IL-17 positive cells in cerebral cortex of EAE mice; details: 10 and 20 mg/kg, particularly 20 mg/kg, day 21
Experimental: as §4, §5

EAE-induced C57BL/6 mice = assay: Clinical score in MOG-induced experimental autoimmune encephalomyelitis (EAE); details: IFNβ analog peptide = SEQ ID No. 1
Experimental: In this example, therapeutic effects of the IFNβ analog peptide with SEQ ID No. 1 on the development of progressive experimental autoimmune encephalomyelitis (EAE) were studied. At first, EAE was induced in 8 weeks old C57BL/6 male mice with a weight between 20 grams and 25 grams. In order to induce EAE, mice were anesthetized with isoflurane and subcutaneously injected with 100 μl of MOG (myelin oligodendrocyte glycoprotein) with a concentration of about 2.5 g/l suspended in 100 μl complete Freund's adjuvant (CFA) into the hind flank. Mice were also intraperitoneally injected with 400 ng of pertussis toxin in 200 μl of phosphate buffered saline (PBS). A second, identical injection of pertussis toxin was given two days following the first immunization. Injections were distributed over four spots, for example about 100 μl per site across the flank areas. […]
After that, in order to conduct clinical evaluation, mice of the experimental groups were blinded scored as follows: score 0 for no overt signs of disease, score 1 for limp tail, score 2 for limp tail and hind limb weakness, score 3 for partial hind limb paralysis of one side (hemiparesis) or both sides (paraparesis), score 4 for complete hind limb paralysis of one side (hemiplegia) or both sides (paraplegia), score 5 for moribund state. The day of immunization was considered as EAE day 0 and clinical behavior of mice was scored daily. […]

[2] = system: matrix metalloproteinase 2 (MMP2); assay: MMP2 gene expression in brain tissue of EAE mice, quantitative real-time PCR; details: 20 mg/kg
Experimental: as §1, §2

[3] = system: tumor necrosis factor-alpha (TNFα); assay: Plasma TNFα of EAE mice, ELISA; details: 21 days after EAE induction
Experimental: as §3

CD11b positive cells = CD11b positive cells in cerebral cortex of EAE mice; details: 10 and 20 mg/kg, particularly 20 mg/kg, day 21
Experimental: as §4, §5

[4] = P<0.05, SEQ ID of peptide not stated in Example 6

IFNβ: Interferon-beta, first-line treatment for relapsing-remitting multiple sclerosis; comparator
Reduction of MMP9, IFNβ versus IFNβ analog peptide [1]: reduction of these inflammation mediators was more in IFNβ-treated mice | MMP9 gene expression fold change in the brain tissue compared to the vehicle group [1, 4]: significant decrease | Reduction of IL1β, IFNβ versus IFNβ analog peptide (interleukin 1β (IL1β)): reduction of these inflammation mediators was more in IFNβ-treated mice | Plasma level of IL1β compared to the vehicle group (interleukin 1β (IL1β); P-value<0.05): significant decrease | Percentage of CD45 positive cells in the cerebral cortex (CD45 positive cells): considerably decreased | Percentage of IL-17 positive cells in the cerebral cortex (IL-17 positive cells): considerably decreased | Effect of raising the dose on EAE clinical symptoms (EAE-induced C57BL/6 mice; 20 mg/kg versus 10 mg/kg): improved disease protection | Mean clinical score (AUC) versus vehicle group and EAE group (EAE-induced C57BL/6 mice; 10 and 20 mg/kg injected on day 14 of EAE induction): significant reduction in the clinical score | Reduction of MMP2, IFNβ versus IFNβ analog peptide [2]: reduction of these inflammation mediators was more in IFNβ-treated mice | MMP2 gene expression fold change in the brain tissue compared to the vehicle group [2, 4]: significant decrease | Reduction of TNFα, IFNβ versus IFNβ analog peptide [3]: reduction of these inflammation mediators was more in IFNβ-treated mice | Plasma level of TNFα compared to the vehicle group ([3]; P-value<0.05): significant decrease | Percentage of CD11b positive cells in the cerebral cortex (CD11b positive cells): considerably decreased
